Reference: patent US10208037B2, “Toll-like receptor-7 and -8 modulatory 1H imidazoquinoline derived compounds” (The University of Kansas, priority 2011, dated 2019)

Key:
Type in all cases: cell-based
TLR7 [1] = biological target: T1, TLR7 (Homo sapiens, UniProt Q9NYK1); experiment: TLR7 reporter gene assay, antagonism (gardiquimod as agonist)
T1 construct: expressed in transfected cells; host or cells: HEK293 (HEK-Blue-7 cells)
T1 sequence (Q9NYK1 27-1049): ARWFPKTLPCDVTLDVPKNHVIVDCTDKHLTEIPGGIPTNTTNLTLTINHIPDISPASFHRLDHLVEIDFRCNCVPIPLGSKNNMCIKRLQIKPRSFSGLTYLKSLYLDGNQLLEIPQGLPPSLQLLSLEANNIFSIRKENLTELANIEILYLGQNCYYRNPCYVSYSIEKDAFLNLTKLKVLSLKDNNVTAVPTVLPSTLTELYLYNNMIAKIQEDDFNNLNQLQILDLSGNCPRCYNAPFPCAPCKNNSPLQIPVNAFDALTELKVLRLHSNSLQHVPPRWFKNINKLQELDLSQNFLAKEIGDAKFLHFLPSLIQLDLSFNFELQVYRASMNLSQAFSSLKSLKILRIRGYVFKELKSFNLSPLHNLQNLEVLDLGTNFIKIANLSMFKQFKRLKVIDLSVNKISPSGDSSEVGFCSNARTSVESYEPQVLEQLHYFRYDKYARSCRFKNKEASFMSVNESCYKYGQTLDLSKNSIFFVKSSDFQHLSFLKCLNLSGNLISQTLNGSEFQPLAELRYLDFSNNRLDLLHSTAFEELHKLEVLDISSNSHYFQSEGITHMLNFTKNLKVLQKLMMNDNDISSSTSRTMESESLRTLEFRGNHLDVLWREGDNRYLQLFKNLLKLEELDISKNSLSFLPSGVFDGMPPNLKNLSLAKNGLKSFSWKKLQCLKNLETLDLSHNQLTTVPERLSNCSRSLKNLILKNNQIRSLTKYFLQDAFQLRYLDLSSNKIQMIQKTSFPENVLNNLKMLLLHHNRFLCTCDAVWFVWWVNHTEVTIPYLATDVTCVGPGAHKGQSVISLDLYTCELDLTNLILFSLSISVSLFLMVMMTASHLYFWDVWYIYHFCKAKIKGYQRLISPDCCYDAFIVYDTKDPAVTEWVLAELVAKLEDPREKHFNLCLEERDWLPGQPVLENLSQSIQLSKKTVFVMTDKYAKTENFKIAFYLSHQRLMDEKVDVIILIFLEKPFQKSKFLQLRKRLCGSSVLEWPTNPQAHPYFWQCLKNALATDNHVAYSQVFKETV
Description: (§1) The induction of NF-κB was quantified using HEK-Blue-3, HEK-Blue-7 and HEK-Blue-8 cells as previously described by us.^8,24,51 HEK293 cells were stably transfected with human TLR3 (or human TLR7 or human TLR8), MD2, and secreted alkaline phosphatase (sAP), and were maintained in HEK-Blue™ Selection medium containing zeocin and normocin. Stable expression of secreted alkaline phosphatase (sAP) under control of NF-κB/AP-1 promoters is inducible by the TLR3 (or TLR7 or TLR8) agonists, and extracellular sAP in the supernatant is proportional to NF-κB induction. HEK-Blue cells were incubated at a density of ˜10^5 cells/ml in a volume of 80 μl/well, in 384-well, flat-bottomed, cell culture-treated microtiter plates until confluency was achieved, and subsequently graded concentrations of stimuli. sAP was assayed spectrophotometrically using an alkaline phosphatase-specific chromogen (present in HEK-detection medium as supplied by the vendor) at 620 nm.
(§2) Antagonism assays were done as described by us earlier^73 using the following agonists at a constant concentration: TLR3 Poly(I:C) (10 ng/mL); TLR7: gardiquimod (1 μg/mL); TLR8: CL075 (1 μg/mL) mixed with graded concentrations of the test compounds.

[2] = test system: TLR7 and TLR8-induced cytokine and chemokine release; experiment: Inhibition of TLR7- and TLR8-mediated cytokine and chemokine production in human PBMCs; conditions: hPBMCs
Procedure: FIGS. 22A-[…] illustrate inhibition of TLR7-mediated (FIGS. 22A-22D) and TLR8-mediated (FIGS. 22E-[…]) proinflammatory cytokine production in human peripheral blood mononuclear cells by chloroquine or 47a. Proinflammatory cytokines were assayed by cytokine bead array methods after incubation of hPBMCs with graded concentrations of the test compound for 12 h in the presence of 10 μg/ml of either CL075 (TLR8 agonist) or gardiquimod (TLR7 agonist). FIGS. 23A-23D illustrate inhibition of TLR7-mediated (FIGS. 23A-23B) and TLR8-mediated (FIGS. 23C-3D) chemokine production in human peripheral blood mononuclear cells by chloroquine or 47a. Chemokines were assayed by cytokine bead array methods after incubation of hPBMCs with graded concentrations of the test compound for 12 h in the presence of 10 μg/ml of either CL075 (TLR8 agonist) or gardiquimod (TLR7 agonist). Aliquots (10^6 cells in 100 μL) of hPBMCs isolated from blood obtained from healthy human donors after informed consent by conventional Ficoll-Hypaque gradient centrifugation were stimulated for 12 h with graded concentrations of test compounds. The supernatant was isolated by centrifugation, diluted 1:20, and cytokines and chemokines were assayed in triplicate using analyte-specific cytokine/chemokine bead array assays as reported by us previously.^74

TLR7 [3] = biological target: T1, TLR7; experiment: Schild plot analysis of inhibition of TLR7-induced activation
Procedure: (§3) Experiments were performed in checker-board format, using a liquid handler, in 384-well plates which permitted the concentrations of both agonist and antagonist to be varied simultaneously along the two axes of the plate. Either imidazoquinoline (TLR7-specific agonist) or CL075 (TLR8-specific agonist) was used at a starting concentration of 20 μg/mL, and were two-fold diluted serially (along the rows). Next, 47a or chloroquine was two-fold diluted serially in HEK detection medium (along columns). Reporter cells were then added, incubated, and NF-κB activation measured as described in the text. A and A′ (Y-axis) are defined respectively as the EC50 value in the absence of antagonist, and the EC50 values in the presence of varying concentrations of antagonist.

TLR8 [4] = biological target: T2, TLR8 (Homo sapiens, UniProt Q9NR97); experiment: TLR8 reporter gene assay, antagonism (CL075 as agonist)
T2 construct: expressed in transfected cells; host or cells: HEK293 (HEK-Blue-8 cells)
T2 sequence (Q9NR97 27-1041): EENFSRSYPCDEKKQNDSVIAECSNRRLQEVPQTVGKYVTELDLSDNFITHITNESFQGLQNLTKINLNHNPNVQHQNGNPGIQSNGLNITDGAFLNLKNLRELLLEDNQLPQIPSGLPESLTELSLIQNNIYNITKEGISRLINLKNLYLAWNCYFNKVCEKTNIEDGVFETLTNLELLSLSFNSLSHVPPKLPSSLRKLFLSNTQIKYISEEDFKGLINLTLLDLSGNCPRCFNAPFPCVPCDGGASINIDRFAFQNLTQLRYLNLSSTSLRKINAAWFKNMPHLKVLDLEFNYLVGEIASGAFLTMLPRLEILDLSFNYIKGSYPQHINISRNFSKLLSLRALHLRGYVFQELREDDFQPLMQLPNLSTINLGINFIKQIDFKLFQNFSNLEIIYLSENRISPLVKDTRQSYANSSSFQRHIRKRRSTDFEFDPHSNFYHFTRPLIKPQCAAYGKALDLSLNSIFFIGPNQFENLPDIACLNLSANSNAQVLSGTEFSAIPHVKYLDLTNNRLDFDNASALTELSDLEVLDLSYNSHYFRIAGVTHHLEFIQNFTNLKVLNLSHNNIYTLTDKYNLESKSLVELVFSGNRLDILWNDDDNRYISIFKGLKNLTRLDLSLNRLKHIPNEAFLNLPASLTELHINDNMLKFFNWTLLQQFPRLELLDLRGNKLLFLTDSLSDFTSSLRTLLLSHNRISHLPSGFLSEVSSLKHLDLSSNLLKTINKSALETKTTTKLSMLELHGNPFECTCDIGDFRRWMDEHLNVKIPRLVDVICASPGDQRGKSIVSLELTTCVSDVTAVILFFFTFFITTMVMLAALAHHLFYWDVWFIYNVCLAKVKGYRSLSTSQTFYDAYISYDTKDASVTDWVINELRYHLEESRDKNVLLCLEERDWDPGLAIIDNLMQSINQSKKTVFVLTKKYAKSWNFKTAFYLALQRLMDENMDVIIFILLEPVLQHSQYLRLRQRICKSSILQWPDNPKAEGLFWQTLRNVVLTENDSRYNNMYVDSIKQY
Description: as §1, §2

TLR8 [5] = biological target: T2, TLR8; experiment: Schild plot analysis of inhibition of TLR8-induced activation
Procedure: as §3

SMILES: Nc1nc2ccccc2c2c1nc(CCCc1nc3c(N)nc4ccccc4c3n1Cc1ccccc1)n2Cc1ccccc1 [Compound 47a, 2,2′-(propane-1,3-diyl)bis(1-benzyl-1H-imidazo[4,5-c]quinolin-4-amine)]
- TLR7 antagonistic activity (in words) (TLR7 [1]): potent antagonistic activity
- IC50 (TLR7 [1]; agonist gardiquimod 1 μg/mL, ND = not detected): 3.1 µM
- IC50 ([2]; Homo sapiens, PBMC, 12 h, 10 μg/ml CL075 or gardiquimod): 0.05 to 0.3 µM
- Inhibition of TNF-α and IL-1β production (in words) [2]: potently inhibits
- Schild plot slope, TLR7 inhibition (TLR7 [3]): 1.12
- TLR8 antagonistic activity (in words) (TLR8 [4]): potent antagonistic activity
- IC50 (TLR8 [4]; agonist CL075 1 μg/mL, ND = not detected): 3.2 µM
- Schild plot slope, TLR8 inhibition (TLR8 [5]): 0.51
